Source: patent US20090047379A1, “Benzamide Compounds Useful as High Potency Sweet Taste Enhancers” (priority 2007, published 2009)
Where a SMILES comes first, the peptide text is derived from it.

Tests used:
Assay type in all cases: in vivo, human
sweet taste [1] = assay: Structure activity example, tasting of analogues (Example 11); settings: when tasted
Description: During our invention process, we observed repeatedly that a small structural difference can cause dramatic change in the taste. For example, compound N-(2-methylcyclohexyl)-2,3,4,5,6-pentafluoro-benzamide is very sweet; moving the methyl group to the 4-position render the resulting N-(4-methylcyclohexyl)-2,3,4,5,6-pentafluoro-benzamide bitter; moving the methyl group to nitrogen render the resulting N-cyclohexyl-2,3,4,5,6-pentafluoro-N-methyl-benzamide tasteless.
There is however an underlying theme, that being that an amide functionality is important.

sweet taste [2] = assay: Sweetener blends with Ace-K or Sucralose, trained technical panel (Example 16); settings: for overall group rating: scale 1-9, 9 the best; for blend rating: scale 1 to 9
Description: A comparison of the synergistic effects the Benzamide, 2,3,4,5,6-Pentafluoro-N-(2-methylcyclohexyl)—(sweetener A) in combination with acesulfame-k, herein referred to as Ace-K and Sucralose was compared with the effects of Benzamide, 2,3,5,6-tetrafluoro-4-methyl-N-(2-methylcyclohexyl)—(sweetener B) in combination with the same commercial sweeteners. The samples were evaluated by a trained technical panel. The first sample was Ace-K at 100 ppm.
A similar evaluation with done with Sucralose as the commercial sweetener. An evaluation of Sucralose at 60 ppm was done in plain water. […] A comparison of the synergistic effects of sweetener A at 3 ppm in combination with Sucralose at 60 ppm was evaluated against sweetener B in the same combination. […] The blends were evaluated on a scale for 1 to 9.

sweet taste [3] = assay: Comparisons of taste quality and intensity, solutions in water (Example 12, Table I); settings: for Other taste attributes: in vivo
Description: Sweetness is rapid and fades quickly on rinsing of the mouth.

sweet taste [4] = assay: Comparison of sweetness at 5 ppm in plain water (Example 13)
Description: Two molecules were compared to each other based on sweetness. Both molecules were evaluated at 5 ppm in plain water.

sweet taste [5] = assay: Sweetness enhancement of an 8 brix beverage, trained technical panel (Example 14); settings: 4 ppm in 8 brix beverage; for sweet intensity rating: ten point scale, nine most sweetness, zero no sweetness
Description: An 8 brix, the measurement of the mass ratio of dissolved sugar in a liquid, beverage was prepared to evaluate two sweeteners, 2,3,5,6-tetrafluoro-4-methyl-N-(2-methylcyclohexyl)benzamide-(sweetener A) and N-(2-methylcyclohexyl)-2,3,4,5,6 pentafluoro-benzamide)—(sweetener B). The objective was to determine if the sweeteners enhanced an 8 brix beverage to make it taste more similar to a 10 brix beverage. There were four samples evaluated an 8 brix beverage blank, sweetener A in 8 brix beverage, sweetener B in 8 brix beverage and a 10 brix beverage blank. Both the sweeteners were evaluated at 4 ppm. The beverage samples were evaluated by a trained technical panel. The panel evaluated the sweetness profile and the sweet intensity. The intensity was rated on a ten point scale with nine being the most sweetness and zero having no sweetness. […] The sweet intensity ratings were as follows (see Table 2) sample A rated 6, sample B rated 7, sample C rated 9 and sample D rated 9.

sweet taste [6] = assay: Sweetness in muffins, trained technical panel (second Example 14); settings: 10 ppm in muffin; for sweetness intensity rating: scale 0-9, 9 most sweetness
Description: The sweeteners 2,3,5,6-tetrafluoro-4-methyl-N-(2-methylcyclohexyl)benzamide (sweetener A) and N-(2-methylcyclohexyl)-2,3,4,5,6 pentafluoro-benzamide -(sweetener B) were both evaluated in muffins. They were evaluated along with a blank muffin sample. Both sweeteners were evaluated at 10 ppm in the muffin. The samples were evaluated by a trained technical panel. They were asked to evaluate the profile and to give a rating between 0-9 on the sweetness intensity. The rating scale ranged from zero for no sweetness to 9 for the most sweetness. […] The samples were rating on sweet intensity (see Table 3). The samples ratings were as follows; sample A rated 5, sample B rated 6, sample C rated 8.

sweet taste [7] = assay: Cola beverage containing Aspartame, trained technical panel (Example 15); settings: for sweetness profile rating: scale 0-9, 9 the best
Description: The sweeteners Benzamide, 2,3,5,6-[…]-4-methyl-N-(2-methylcyclohexyl)—(sweetener A) and Benzamide, 2,3,4,5,6-pentafluoro-N-(2-methylcyclohexyl)—(sweetener B) were both evaluated in a cola beverage that contained Aspartame. The purpose of this experiment was to evaluate the sweeteners profile in a sweetener blend. There were three separate samples evaluated, see Table 3. The samples were evaluated by a trained technical panel. The sweetness profile was rated on a scale from 0-9, with 0 being the worst and 9 the best. The first sample, Sample A, containing only aspartame at 300 ppm was rated a 4. […] The second sample, Sample B, contained Aspartame at 300 ppm and sweetener A at 3 ppm. […] The rating for sample B was a 9 for sweetness. The third sample, sample C, contained Aspartame at 300 ppm and sweetener B at 3 ppm.

[8] = 3 ppm with Aspartame 300 ppm in cola beverage
[9] = 3 ppm in combination with Ace-K at 100 ppm
[10] = 3 ppm in combination with Sucralose at 60 ppm
[11] = Aspartame 300 ppm only in cola beverage

Compound: CC1CCCCC1OC(=O)c1c(F)c(F)c(F)c(F)c1F (stereo not shown) [2,3,4,5,6-pentafluorobenzoic acid 2-methylcyclohexyl ester]
- taste (sweet taste [1]): burning sensation

Compound: OC[C@H]1O[C@H](O[C@]2(CCl)O[C@H](CCl)[C@@H](O)[C@@H]2O)[C@H](O)[C@@H](O)[C@H]1Cl [Sucralose]
- taste comments (sweet taste [2]; Sucralose at 60 ppm alone in plain water): sweet onset, mouthwatering, sweetness lingers

Compound: Cc1c(F)c(F)c(C(=O)N[C@H](C)C2CCCCC2)c(F)c1F [Compound 40, (R)-N-1-cyclohexylethyl-2,3,5,6-tetrafluoro-4-methyl-benzamide]
- Other taste attributes (sweet taste [3]): Bitter at 20 ppm
- Profile (sweet taste [3]; sweetness onset and duration relative to sucrose): Poor sweet taste profile

Compound: CC1=CC(=O)[N-]S(=O)(=O)O1.[K+] [Ace-K, acesulfame-k]
- taste comments (sweet taste [2]; Ace-K at 100 ppm alone): delayed sweetness, some off notes, astringent and bitter

Compound: CN(C(=O)c1c(F)c(F)c(F)c(F)c1F)C1CCCCC1 [N-cyclohexyl-2,3,4,5,6-pentafluoro-N-methyl-benzamide]
- taste (sweet taste [1]): tasteless

Compound: CC1CCCCC1NC(=O)c1c(F)c(F)c(F)c(F)c1F (stereo not shown) [Example 6, N-(2-methylcyclohexyl)-2,3,4,5,6-pentafluoro-benzamide]
- taste (sweet taste [1]): very sweet
- equal in sweetness to sucrose (sweet taste [3]; 1 ppm in water): 1-2 % sucrose
- taste description (sweet taste [3]; 1 ppm in water): sweetness is not immediate but builds after a few seconds but is very clean, lacking bitterness, off-taste or negative attribute
- rated as sweet as sucrose (sweet taste [3]; 4% sucrose plus 1 ppm in water): 8 % sucrose
- taste description (sweet taste [3]; 4% sucrose plus 1 ppm in water): longer lasting and considered to be quite acceptable sweet character lacking bitterness
- taste description (sweet taste [3]; 4% sucrose plus 5 ppm in water): too sweet and too long lasting
- equal in strength to sucrose (sweet taste [3]; 5 ppm in water): 4-6 % sucrose
- sweet character lasts longer than sucrose (sweet taste [3]; 5 ppm in water): up to 10 times longer
- taste description (sweet taste [3]; 5 ppm in water): sweetness is not immediate but is very clean, lacking bitterness, off-taste or negative attribute
- Other taste attributes (sweet taste [3]): Clean
- effect in combination with sucrose (sweet taste [3]; low concentrations <4 ppm): synergistic effect with sucrose
- taste description (sweet taste [4]): mouth coating, intense sweet, no bitter notes, and had a fast sweetness onset
- sweetness profile comments (sweet taste [5]): sweeter, more mouthwatering, had a slight astringent aftertaste and had a similar sweetness profile to the 10 brix beverage
- sweet intensity rating (sweet taste [5]): 9
- profile description (sweet taste [6]): sweeter, long lasting sweetness and mouthwatering
- sweetness intensity rating (sweet taste [6]): 8
- sweetness comments (sweet taste [7]; [8]): sweetness had more impact than Sample A, but not as intense as Sample B
- sweetness profile rating (sweet taste [7]; [8]): 6
- taste comments (sweet taste [2]; [9]): strong sweetness upfront, bitter, enhanced bitterness in combination
- overall group rating (sweet taste [2]; [9]): 9
- taste comments (sweet taste [2]; [10]): enhanced sweetness, more rounded, no bitter, very strong sweet profile
- blend rating (sweet taste [2]; [10]): 9

Compound: OC[C@H]1O[C@@](CO)(O[C@H]2O[C@H](CO)[C@@H](O)[C@H](O)[C@H]2O)[C@@H](O)[C@@H]1O [Sucrose, reference compound]
- taste description (sweet taste [3]; 4% sucrose in water): moderate sweetness and mouthfeel
- taste description (sweet taste [3]; 8% sucrose in water): good level sweetness and excellent mouthfeel

Compound: COC(=O)[C@H](Cc1ccccc1)NC(=O)[C@@H](N)CC(=O)O [Aspartame] (H-Asp-Phe-OMe)
- sweetness comments (sweet taste [7]; [11]): sweetness in the beverage spiked and then disappeared
- sweetness profile rating (sweet taste [7]; [11]): 4

Compound: Cc1c(F)c(F)c(C(=O)NC(C)C(C)C)c(F)c1F (stereo not shown) [2,3,5,6-tetrafluoro-4-methyl-N-(1,2-Dimethyl-propyl)benzamide, reference compound]
- Other taste attributes (sweet taste [3]): Clean

Compound: CC1CCC(NC(=O)c2c(F)c(F)c(F)c(F)c2F)CC1 (stereo not shown) [N-(4-methylcyclohexyl)-2,3,4,5,6-pentafluoro-benzamide]
- taste (sweet taste [1]): bitter

Compound: CC(C)C(C)NC(=O)c1c(F)c(F)c(F)c(F)c1F (stereo not shown) [Compound 53, N-(1,2-dimethylpropyl)-2,3,4,5,6-pentafluoro-benzamide]
- Other taste attributes (sweet taste [3]): Clean

Compound: O=C(N[C@@H]1CCCc2ccccc21)c1ccoc1 [N-[(1R)-1,2,3,4-tetrahydro-1-naphthalenyl]-3-furancarboxamide, reference compound]
- Other taste attributes (sweet taste [3]): Clean

Compound: Cc1c(F)c(F)c(C(=O)NC2CCCCC2C)c(F)c1F (stereo not shown) [2,3,5,6-tetrafluoro-4-methyl-N-(2-methylcyclohexyl)benzamide]
- taste description (sweet taste [4]): mild vegetative, green and very bitter with some sugary notes
- sweetness profile comments (sweet taste [5]): sour and slightly sweeter than the 8 brix blank
- sweet intensity rating (sweet taste [5]): 7
- profile description (sweet taste [6]): slightly sweet, not much difference in profile to the blank muffin sample
- sweetness intensity rating (sweet taste [6]): 6
- sweetness comments (sweet taste [7]; [8]): sweetness was well rounded, lingered, and gave mouthfeel
- sweetness profile rating (sweet taste [7]; [8]): 9
- taste comments (sweet taste [2]; [9]): delayed sweetness, astringency, not as strong a sweetness as the combination with sweetener A
- overall group rating (sweet taste [2]; [9]): 7
- taste comments (sweet taste [2]; [10]): not as sweet as the combination with sweetener A, delayed sweetness
- blend rating (sweet taste [2]; [10]): 7

Compound: Cc1cc(C)c(C(=O)NC(C)C(C)(C)C)c(C)c1 (stereo not shown) [Example 2, 2,4,6-trimethyl-N-(1,2,2-trimethylpropyl)-benzamide]
- Other taste attributes (sweet taste [3]): Clean

Compound: O=C(N[C@H]1CCCc2ccccc21)c1ccoc1 (single isomer, unassigned) [1S isomer, reference compound]
- Other taste attributes (sweet taste [3]): 1S isomer is tasteless
